As usually defined, the IC50 is the point on the concentration scale where inhibition reaches its midpoint.

Where only a bound is given, the exact number is not on record here.

This test concerns the target T1, human ENT1 (Homo sapiens, UniProt Q99808).
T1 construct: JAR cells expressing ENT1 were purchased from ATCC; host or cells: JAR cells
T1 sequence (Q99808 1-456): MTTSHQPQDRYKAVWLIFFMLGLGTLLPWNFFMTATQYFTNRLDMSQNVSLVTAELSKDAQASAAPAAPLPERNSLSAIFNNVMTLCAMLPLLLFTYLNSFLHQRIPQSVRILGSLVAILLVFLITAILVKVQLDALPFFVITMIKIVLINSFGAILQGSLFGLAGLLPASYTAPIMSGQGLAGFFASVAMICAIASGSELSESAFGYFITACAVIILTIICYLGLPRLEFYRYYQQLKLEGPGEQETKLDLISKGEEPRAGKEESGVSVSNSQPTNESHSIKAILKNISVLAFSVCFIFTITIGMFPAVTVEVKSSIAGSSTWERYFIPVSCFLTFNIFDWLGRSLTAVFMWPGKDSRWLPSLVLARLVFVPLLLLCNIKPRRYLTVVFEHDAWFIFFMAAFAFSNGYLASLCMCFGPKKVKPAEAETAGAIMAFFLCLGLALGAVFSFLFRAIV
The test can be described thus: ENT1 binding assay (competition with Sahenta-DY647 on JAR cells). Conditions: competition with SAHENTA-DY647 binding; IC50 categorized; read-out: Binding Assay IC50. An outline of the steps: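 Whole-cell competition on JAR cells (native ENT1): 50,000 cells pre-incubated 30 min at 4 °C with compound in HBSS/10 mM Hepes/0.1% BSA, then 100 nM Sahenta-DY647 added for 30 min at 4 °C. After washing, fluorescence (Ex 630/Em 670 nm) read; IC50 from sigmoidal fit, averaged as pIC50.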
Take `C[C@H]1O[C@@H](n2cnc3c(NCc4cccc(C(=O)N(C)C)c4)ncnc32)[C@H](O)[C@@H]1O` [Compound 379]: the IC50 is more than 500 nM.

On to `C[C@H]1O[C@@H](n2c(NC3CCCC3)nc3c(OCc4ccc([N+](=O)[O-])nc4)ncnc32)[C@H](O)[C@@H]1O` [Compound 85], for which the IC50 is less than 1 nM.

Turning to `CC(CCO)Nc1nc2c(OCc3ccc(C(F)(F)F)cc3)ncnc2n1[C@@H]1O[C@H](C)[C@@H](O)[C@H]1O` (some centres unmarked) [Compound 96], the IC50 lay in the range of 1 to 20 nM.

`C[C@H]1O[C@@H](n2cnc3c(OCc4ccc([N+](=O)[O-])cc4)nc(F)nc32)[C@H](O)[C@@H]1O` [Compound 225]: the IC50 was more than 500 nM.

With `C[C@H]1O[C@@H](n2cnc3c(OCCc4ccc(OC(F)(F)F)cc4)ncnc32)[C@H](O)[C@@H]1O` [Compound 241], the IC50 was more than 500 nM.

As for `Cc1nn(C)c(C)c1CNc1nc2c(OCc3ccc([N+](=O)[O-])cc3)ncnc2n1[C@H]1O[C@H](C)[C@@H](O)[C@H]1O` [Compound 67], the IC50 is less than 1 nM.

`C[C@H]1O[C@@H](n2cnc3c(C4=Cc5cc([N+](=O)[O-])ccc5CC4)ncnc32)[C@H](O)[C@@H]1O` [Compound 192]: the IC50 was 20 to 500 nM.

With `C[C@H]1O[C@@H](n2c(NCCO)nc3c(OCc4ccc(OC(F)F)cc4)ncnc32)[C@H](O)[C@@H]1O` [Compound 42], the IC50 lay in the range of 1 to 20 nM.

Consider `C[C@H]1O[C@@H](n2c(N[C@H]3C[C@H](O)C3)nc3c(OCc4ccc(C#N)cc4)ncnc32)[C@H](O)[C@@H]1O` [Compound 50], for which the half-inhibitory concentration (IC50) was less than 1 nM.

With `C[C@H]1O[C@@H](n2cnc3c(OCCc4ccc(C(F)F)cc4)ncnc32)[C@H](O)[C@@H]1O` [Compound 267], the concentration for half-maximal inhibition (IC50) was more than 500 nM.

For the compound `C[C@H]1O[C@@H](n2cnc3c(SCc4ccc(OCC(F)(F)F)cc4)ncnc32)[C@H](O)[C@@H]1O` [Compound 207], the IC50 was in the range of 20 to 500 nM.

As for `C[C@H]1O[C@@H](n2cnc3c(OCc4ccc(-c5ccn(C)n5)cc4)ncnc32)[C@H](O)[C@@H]1O` [Compound 383], the IC50 was more than 500 nM.

For `CC1OC(n2c(NC3CCC(C)(O)CC3)nc3c(OCc4ccc([N+](=O)[O-])cc4)ncnc32)C(O)C1O` (single isomer, unassigned) [Compound 117], the IC50 lay within 1 to 20 nM.

Regarding `C[C@H]1O[C@@H](n2c(Nc3cnn(C)c3)nc3c(OCc4ccc(C#N)cc4)ncnc32)[C@H](O)[C@@H]1O` [Compound 63], the half-maximal inhibitory concentration (IC50) lay in the range of 20 to 500 nM.

Regarding `C[C@H]1O[C@@H](n2cnc3c(OCCc4ccc(OC(F)F)nc4)ncnc32)[C@H](O)[C@@H]1O` [Compound 278], the IC50 was more than 500 nM.

On to `C[C@H]1O[C@@H](n2c(N[C@H]3C[C@@](C)(O)C3)nc3c(OCc4ccc(OC(F)F)cc4)ncnc32)[C@H](O)[C@@H]1O` [Compound 123], for which the IC50 was 1 to 20 nM.

Turning to `C[C@H]1O[C@@H](n2cnc3c(OC4CCc5ccc([N+](=O)[O-])cc5C4)ncnc32)[C@H](O)[C@@H]1O` (some centres unmarked) [Compound 228], the IC50 is more than 500 nM.

Regarding `C[C@H]1O[C@@H](n2cnc3c(OCc4ccc(OCCF)cc4)ncnc32)[C@H](O)[C@@H]1O` [Compound 236], the IC50 was more than 500 nM.

`C[C@H]1O[C@@H](n2cnc3c(OCCc4ccc(S(C)(=O)=O)cc4)ncnc32)[C@H](O)[C@@H]1O` [Compound 344]: the IC50 was more than 500 nM.

In the case of `C[C@H]1O[C@@H](n2c(N[C@H]3CC[C@](C)(O)CC3)nc3c(OCc4ccc(Cl)cc4)ncnc32)[C@H](O)[C@@H]1O` [Compound 127], the IC50 fell in the range of 20 to 500 nM.

With `C[C@H]1O[C@@H](n2c(NC3CCC(O)C3)nc3c(OCc4ccc(F)cc4)ncnc32)[C@H](O)[C@@H]1O` (some centres unmarked) [Compound 102], the IC50 fell in the range of 1 to 20 nM.

`C[C@H]1O[C@@H](n2cnc3c(OCc4cccc(C(F)(F)F)c4)ncnc32)[C@H](O)[C@@H]1O` [Compound 274]: the IC50 was more than 500 nM.

With `C[C@H]1O[C@@H](n2c(N[C@H]3C[C@](C)(O)C3)nc3c(OCc4ccc(OC(F)F)cc4)ncnc32)[C@H](O)[C@@H]1O` [Compound 124], the IC50 is less than 1 nM.

Source of the values: US20260184712A1, “Heterocyclic Compounds as ENT Inhibitors and Compounds for Use in the Treatment of Cancers” (iTeos Belgium SA, priority 2022, published 2026).
